Assay results from patent US6344562B1, “Thiazole derivatives” (Hoffmann-La Roche Inc., priority 1998, dated 2002).
Counter-ions that a name gives are not always drawn.

| melting point | SMILES |
| --- | --- |
| 140 °C | COC(=O)CCCCCNC(=O)c1csc(NC(=O)NCc2ccccc2)n1 [Example 137, methyl 6-{[2-(3-benzyl-ureido)-thiazole-4-carbonyl]-amino}-hexanoate] |
| 126 to 130 °C | O=C(O)C[C@H](NC(=O)CNC(=O)c1csc(NC(=O)NCc2ccccc2)n1)C(=O)N[C@H](C(=O)O)c1ccccc1 (as salt: trifluoroacetate) [Example 144, (S)-3-[2-[[2-(3-benzyl-ureido)-thiazole-4-carbonyl]-amino]-acetyl-amino]-N-[(S)-carboxy-phenyl-methyl)-succinamic acid] |
| 185 °C | CC(C)(C)OC(=O)C[C@H](NC(=O)CNC(=O)c1csc(NC(=O)NCc2ccccc2)n1)C(=O)NCc1cccnc1 [Example 163, tert-butyl (S)-3-[2-[[2-(3-benzyl-ureido)-thiazole-4-carbonyl]-amino]-acetylamino]-N-pyridin-3-ylmethyl-succinamate] |
| 233 °C | O=C(O)CCc1ccc(NC(=O)c2csc(NC(=O)NCc3ccccc3)n2)cc1 [Example 154, 3-[4-[[2-(3-benzyl-ureido)-thiazole-4-carbonyl]-amino]-phenyl]-propionic acid] |
| 185 °C | COc1cccc(NC(=O)[C@H](CC(=O)O)NC(=O)CNC(=O)c2csc(NC(=O)NCc3ccccc3)n2)c1 [Example 134, (S)-3-[2-[[2-(3-benzyl-ureido)-thiazole-4-carbonyl]-amino]-acetylamino]-N-(3-methoxy-phenyl)-succinamic acid] |
| 198 to 199 °C | CCOC(=O)CC(NC(=O)CNC(=O)c1csc(N=C2NCCN2)n1)c1cccnc1 (racemic) [Example 171, ethyl (RS)-3-(2-{[2-(imidazolidin-2-ylidenamino)-thiazole-4-carbonyl]-amino}-acetylamino)-3-pyridin-3-yl-propionate] |
| 194 °C | CCOC(=O)CCc1ccc(NC(=O)c2csc(NC(=O)NCc3ccccc3)n2)cc1 [Example 153, ethyl 3-[4-[[2-(3-benzyl-ureido)-thiazole-4-carbonyl]-amino]-phenyl]-propionate] |
| 183 °C | O=C(O)C[C@H](NC(=O)CNC(=O)c1csc(NC(=O)NCc2ccccc2)n1)C(=O)O (as salt: trifluoroacetate) [Example 158, (S)-2-(2-{[2-(3-benzyl-ureido)-thiazole-4-carbonyl]-amino}-acetylamino)-succinic acid] |
| 192 °C | O=C(O)C[C@H](NC(=O)CNC(=O)c1csc(NC(=O)NCc2ccccc2)n1)C(=O)Nc1ccccc1C(=O)O [Example 136, (S)-2-[2-(2-{[2-(3-benzyl-ureido)-thiazole-4-carbonyl]-amino}-acetylamino)-3-carboxy-propionylamino]-benzoic acid] |

Second part, the molecule before the results:

| SMILES | melting point |
| --- | --- |
| N=C(N)Nc1nc(C(=O)NCCC(=O)NC(CC(=O)O)c2ccccc2)cs1 (racemic) [Example 25, rac-3-[3-[(2-guanidino-thiazole-4-carbonyl)-amino]-propionylamino]-3-phenyl-propionic acid] | 105 to 107 °C (dec.) |
| CCOC(=O)CC(NC(=O)c1ccc(OC)c(NC(=O)c2sc(NC(=N)N)nc2C)c1)c1ccccc1 (racemic) [Example 78, ethyl (RS)-3-{3-[(2-guanidino-4-methyl-thiazole-5-carbonyl)-amino]-4-methoxy-benzoylamino}-3-phenyl-propionate] | 123 to 126 °C |
| O=C(O)C[C@H](NC(=O)CNC(=O)c1csc(NC(=O)NCc2ccccc2)n1)C(=O)NCc1ccccc1 (as salt: trifluoroacetate) [Example 130, (S)-N-benzyl-3-[2-[[2-(3-benzyl-ureido)-thiazole-4-carbonyl]-amino]-acetylamino]-succinamic acid] | 193 °C |
| CC(C)[C@H](NC(=O)[C@H](CC(=O)OC(C)(C)C)NC(=O)CNC(=O)c1csc(NC(=O)NCc2ccccc2)n1)C(=O)OC(C)(C)C [Example 141, tert-butyl (S)-2-[(S)-2-[2-[[2-(3-benzyl-ureido)-thiazole-4-carbonyl]-amino]-acetylamino]-3-tert-butoxycarbonyl-propionylamino]-3-methyl-butyrate] | 108 to 111 °C |
| CCOC(=O)CC(NC(=O)c1cccc(NC(=O)c2sc(NC(=N)N)nc2C)c1)c1ccccc1 (racemic) [Example 10, ethyl rac-3-[3-[(2-guanidino-4-methyl-thiazole-5-carbonyl)-amino]-benzoylamino]-3-phenyl-propionate] | 177 °C |
| N=C(N)Nc1nc(C(=O)Nc2cccc(C(=O)NC(CC(=O)O)c3ccccc3)c2)cs1 (racemic) [Example 19, (RS)-3-{3-[(2-guanidino-thiazole-4-carbonyl)-amino]-benzoylamino}-3-phenyl-propionic acid] | 235 °C |
| CCOC(=O)CCNC(=O)CCNC(=O)c1csc(NC(=N)N)n1 [Example 7, ethyl 3-[3-[(2-guanidino-thiazole-4-carbonyl)-amino]-propionylamino]-propionate] | 154 to 157 °C |
| CCOC(=O)CC(NC(=O)c1cccc(NC(=O)c2csc(NC(=N)N)n2)c1)c1ccccc1 (racemic) [Example 18, ethyl (RS)-3-[3-[(2-guanidino-thiazole-4-carbonyl)-amino]-benzoylamino]-3-phenyl-propionate] | 117 °C |
| CC(=O)O.Cc1nc(N=C2NCCCN2)sc1C(=O)NCCCCC(CC(=O)O)c1ccccc1.Cl (racemic) | 60 to 63 °C |
| N=C(N)Nc1ncc(C(=O)Nc2cccc(C(=O)NC(CC(=O)O)c3ccccc3)c2)s1 (racemic) [Example 73, (RS)-3-[3-[(2-guanidino-thiazole-5-carbonyl)-amino]-benzoylamino]-3-phenyl-propionic acid] | 196 °C |
| O=C(O)CCCC(=O)CNC(=O)c1csc(NC(=O)NCc2ccccc2)n1 [Example 83, 6-{[2-(3-benzyl-ureido)-thiazole-4-carbonyl]-amino}-5-oxo-hexanoic acid] | 169 °C |
| CCCc1nc(NC(=N)N)sc1-c1cccc(NC(=O)CC(CC(=O)O)c2ccccc2)c1 (racemic) [Example 92, rac-4-[3-(2-guanidino-4-propyl-thiazol-5-yl)-phenylcarbamoyl]-3-phenyl-butyric acid] | 245 to 247 °C (dec.) |
| CCCCCc1nc(NC(=N)N)sc1-c1cccc(NC(=O)CC(CC(=O)O)c2ccccc2)c1 (racemic) [Example 94, rac-4-[3-(2-guanidino-4-pentyl-thiazol-5-yl)-phenylcarbamoyl]-3-phenyl-butyric acid] | 186 to 188 °C (dec.) |
| CCOC(=O)CC(NC(=O)CCNC(=O)c1csc(NC(=N)N)n1)c1ccccc1 (racemic) [Example 24, ethyl rac-3-[3-[(2-guanidino-thiazole-4-carbonyl)-amino]-propionylamino]-3-phenyl-propionate] | 85 to 87 °C |
| O=C(O)CCNC(=O)CNC(=O)c1csc(NC(=O)NCc2ccccc2)n1 (as salt: hydrochloride) [Example 132, 3-[2-[[2-(3-benzyl-ureido)-thiazole-4-carbonyl]-amino]-acetylamino]-propionic acid] | 174 °C |
| CC(C)(C)OC(=O)N[C@@H](CCCCNC(=O)c1csc(NC(=O)NCc2ccccc2)n1)C(=O)O [Example 146, (S)-6-{[2-(3-benzyl-ureido)-thiazole-4-carbonyl]-amino}-2-tert-butoxycarbonylamino-hexanoic acid] | 138 °C |
